The values below come from patent US20120165331A1, “Di/tri-aza-spiro-C9-C11alkanes” (priority 2010, published 2012).

The structures appear in SMILES notation.

What is called Kd is the concentration at which binding is half-saturated. Broadly, the Ki is the equilibrium dissociation constant of an inhibitor or competing ligand from its target. The inhibition is how much of the control response was suppressed.

For assay [1], the target named is T1, human orexin 1 receptor (Homo sapiens, UniProt O43613).
T1 construct: expressed in transfected cells
T1 sequence (O43613 1-425): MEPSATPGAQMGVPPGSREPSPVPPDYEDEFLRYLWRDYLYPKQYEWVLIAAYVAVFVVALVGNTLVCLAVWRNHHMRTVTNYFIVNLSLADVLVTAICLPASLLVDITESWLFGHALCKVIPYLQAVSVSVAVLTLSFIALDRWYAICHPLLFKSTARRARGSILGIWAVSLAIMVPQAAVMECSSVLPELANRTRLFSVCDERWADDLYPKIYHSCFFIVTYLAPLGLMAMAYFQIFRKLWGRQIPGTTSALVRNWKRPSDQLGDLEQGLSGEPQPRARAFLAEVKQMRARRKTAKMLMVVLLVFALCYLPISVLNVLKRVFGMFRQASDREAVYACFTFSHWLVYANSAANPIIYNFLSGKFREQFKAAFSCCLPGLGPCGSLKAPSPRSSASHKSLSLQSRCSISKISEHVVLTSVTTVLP
Nature of the assay: Radioligand binding assay ([3H]-SB649868 competition), human orexin 1 receptor. The conditions noted are these: radioligand [3H]-SB649868; read-out: Binding hOx1R Kd. An outline of the steps: (§1)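 Competition binding against roughly 1 nM [3H]-SB649868, run in triplicate for 1 h at room temperature on CHO or HEK membranes bearing human receptor (10 mM HEPES pH 7.5, 0.5% BSA, 5 mM MgCl2, 1 mM CaCl2, 0.05% tween). Bound radioactivity after vacuum filtration; almorexant 10 μM for non-specific binding; expressed as Kd.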

Assay [2] concerns the target T2, human orexin 2 receptor (Homo sapiens, UniProt O43614).
T2 construct: expressed in transfected cells
T2 sequence (O43614 1-444): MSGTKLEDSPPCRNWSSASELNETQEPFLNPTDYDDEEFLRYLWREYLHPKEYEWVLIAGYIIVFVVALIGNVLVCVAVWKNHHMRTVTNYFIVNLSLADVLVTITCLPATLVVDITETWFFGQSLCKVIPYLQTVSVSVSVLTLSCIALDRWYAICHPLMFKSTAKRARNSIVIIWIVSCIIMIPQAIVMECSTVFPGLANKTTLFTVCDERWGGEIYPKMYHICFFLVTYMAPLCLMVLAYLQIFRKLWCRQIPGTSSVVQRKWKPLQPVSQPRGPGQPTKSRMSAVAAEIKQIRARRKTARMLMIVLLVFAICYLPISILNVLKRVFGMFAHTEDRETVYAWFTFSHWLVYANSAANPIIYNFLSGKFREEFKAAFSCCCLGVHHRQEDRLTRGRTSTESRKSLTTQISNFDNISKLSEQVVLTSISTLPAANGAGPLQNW
Nature of the assay: Radioligand binding assay ([3H]-SB649868 competition), human orexin 2 receptor. The conditions noted are these: radioligand [3H]-SB649868; read-out: Binding hOx2R Kd. An outline of the steps:
as §1

Assay [3] has as its target T1, human orexin 1 receptor. Nature of the assay: Calcium accumulation in cells (FLIPR), antagonism of orexin A, human orexin 1 receptor. The class given is cell-based. The settings on record: for Ki: calcium accumulation, antagonism of orexin A, Cheng-Prusoff corrected, read-out: FLIPR hOx1R Ki.
The target of assay [4] is T2, human orexin 2 receptor. Kind of assay: Calcium accumulation in cells (FLIPR), antagonism of orexin A, human orexin 2 receptor. The settings on record: calcium accumulation, antagonism of orexin A, Cheng-Prusoff corrected; read-out: FLIPR hOx2R Ki. The class given is cell-based.

For the molecule `COc1cccc(-c2oc(C)nc2CN2CCNC3(CCN(c4nccc(OC)n4)CC3)C2=O)c1` [Example 1.17, 4-((5-(3-Methoxyphenyl)-2-methyloxazol-4-yl)methyl)-9-(4-methoxypyrimidin-2-yl)-1,4,9-triazaspiro[5.5] undecan-5-one], the dissociation constant Kd in assay [1] is 2.35 µM; in assay [2], 0.251 µM. Also, the Ki in assay [3] was found to be 2.09 µM; in assay [4] it was 0.092 µM.

With `O=C1COCC2(CCN(c3cnc4ccccc4n3)CC2)N1Cc1cccc2[nH]ccc12` [Example 8.9, 1-((1H-Indol-4-yl)methyl)-9-(quinoxalin-2-yl)-4-oxa-1,9-diazaspiro[5.5]undecan-2-one], the values for the Kd in assay [1] and in assay [2] were 0.429 µM and 0.136 µM, respectively. For the same molecule, the Ki in assay [3] turned out to be 0.32 µM; in assay [4], 0.029 µM.

Take `COc1cccc(-c2ocnc2CN2CCNC3(CCN(c4nccc(C)n4)CC3)C2=O)c1` [Example 1.10, 4-((5-(3-Methoxyphenyl)oxazol-4-yl)methyl)-9-(4-methyl-pyrimidin-2-yl)-1,4,9-triazaspiro[5.5] undecan-5-one]: the Kd came out at 3.97 µM in assay [1] and 0.164 µM in assay [2]. Also, the Ki amounted to 2.61 µM in assay [3] and 0.084 µM in assay [4].

For `Cc1ccc(C)c(CN2C(=O)CCC23CCN(c2nc(C)cc(C)n2)CC3)c1` [Example 8.6, 1-(2,5-Dimethylbenzyl)-8-(4,6-dimethylpyrimidin-2-yl)-1,8-diazaspiro[4.5]decan-2-one], the values for the Kd in assay [1] and in assay [2] were 4.92 µM and 0.153 µM, respectively. For the same molecule, the Ki in assay [3] came out at 2.78 µM; in assay [4], 0.01 µM.

For `Cc1cc(C)nc(N2CCC3(CC2)NCCN(Cc2c[nH]c4ccc(F)cc24)C3=O)n1` [Example 1.4, 9-(4,6-Dimethylpyrimidin-2-yl)-4-((5-fluoro-1H-indol-3-yl)methyl)-1,4,9-triazaspiro[5.5]undecan-5-one], the Kd in assay [1] stood at 0.77 µM; in assay [2], 0.017 µM. The values for the Ki in assay [3] and in assay [4] were 0.601 µM and 0.006 µM, respectively.

Turning to `COc1cc(C)nc(N2CC[C@@]3(CCCN(Cc4c[nH]c5ccccc45)C3=O)C2)n1` (single isomer, unassigned) [Example 7.10], the Kd was found to be 0.75 µM in assay [1] and 0.238 µM in assay [2]. Moreover, the results for the Ki in assay [3] and in assay [4] were 0.139 µM and 0.014 µM, respectively.

For the molecule `Cc1cc(C)nc(N2CCC3(CC2)OCCN(Cc2n[nH]c4ccccc24)C3=O)n1` [Example 2.2, 9-(4,6-Dimethyl-pyrimidin-2-yl)-4-(1H-indazol-3-ylmethyl)-1-oxa-4,9-diaza-spiro[5.5]undecan-5-one], the figures for the Kd in assay [1] and in assay [2] were 1.84 µM and 0.071 µM, respectively. For the same molecule, the Ki was 1.8 µM in assay [3] and 0.055 µM in assay [4].

On to `CCC(=O)c1cccc(-c2cn(C)nc2CN2CCNC3(CCN(c4nc(C)cc(C)n4)CC3)C2=O)c1` [Example 1.70, 9-(4,6-dimethyl-pyrimidin-2-yl)-4-((1-methyl-4-(3-propionylphenyl)-1H-pyrazol-3-yl)methyl)-1,4,9-triazaspiro[5.5] undecan-5-one], for which the Kd was found to be 0.465 µM in assay [1] and 0.021 µM in assay [2]. In addition, the Ki in assay [3] was 0.856 µM; in assay [4] it was 0.002 µM.

For the molecule `COc1cccc(-c2n[nH]nc2CN2CCCC3(CCN(c4nccc(OC)n4)C3)C2=O)c1` (stereo not shown) [Example 7.6, 7-((5-(3-Methoxyphenyl)-2H-1,2,3-triazol-4-yl)methyl)-2-(4-methoxypyrimidin-2-yl)-2,7-diazaspiro[4.5]decan-6-one], the values for the Kd in assay [1] and in assay [2] were 0.187 µM and 0.17 µM, respectively. Besides, the results for the Ki in assay [3] and in assay [4] were 0.189 µM and 0.065 µM, respectively.

With `COc1cc(C)nc(N2CCC3(CCN(Cc4nn(C)nc4-c4ccccc4)C3=O)C2)n1` (stereo not shown) [Example 5.43, 7-(4-methoxy-6-methylpyrimidin-2-yl)-2-((2-methyl-5-phenyl-2H-1,2,3-triazol-4-yl)methyl)-2,7-diazaspiro[4.4]nonan-1-one], the values for the Kd in assay [1] and in assay [2] were 0.339 µM and 0.118 µM, respectively. Moreover, the Ki was 0.421 µM in assay [3] and 0.029 µM in assay [4].

On to `COc1cc(C)nc(N2CCC3(CC2)NCCN(Cc2n[nH]c4ccccc24)C3=O)n1` [Example 1.65, 4-((1H-indazol-3-yl)methyl)-9-(4-methoxy-6-methyl-pyrimidin-2-yl)-1,4,9-triazaspiro[5.5] undecan-5-one], for which the Kd stood at 1.16 µM in assay [1] and 0.058 µM in assay [2]. Also, the Ki in assay [3] was 1.58 µM; in assay [4], 0.021 µM.

For `Cc1cc(C)nc(N2CCC3(CC2)NCCN(Cc2nn(C)cc2-c2cccc(OCC(C)C)c2)C3=O)n1` [Example 1.53, 9-(4,6-Dimethyl-pyrimidin-2-yl)-4-((4-(3-isobutoxyphenyl)-1-methyl-1H-pyrazol-3-yl)methyl)-1,4,9-triazaspiro[5.5] undecan-5-one], the Kd in assay [1] was 0.319 µM; in assay [2], 0.045 µM. In addition, the Ki in assay [3] was found to be 0.331 µM; in assay [4], 0.007 µM.

Take `COc1cccc(-c2nn(C)nc2CN2CCC3(CCN(c4nc(C)cc(OC)n4)C3)C2=O)c1` (stereo not shown) [Example 5.45, 7-(4-methoxy-6-methylpyrimidin-2-yl)-2-((5-(3-methoxyphenyl)-2-methyl-2H-1,2,3-triazol-4-yl)methyl)-2,7-diazaspiro[4.4]nonan-1-one]: the values for the dissociation constant Kd in assay [1] and in assay [2] were 0.097 µM and 0.021 µM, respectively. The Ki in assay [3] came out at 0.029 µM; in assay [4], 0.0028 µM.

In the case of `COCc1cccc(-c2ocnc2CN2CCNC3(CCN(c4nc(C)cc(OC)n4)CC3)C2=O)c1` [Example 1.29, 9-(4-Methoxy-6-methylpyrimidin-2-yl)-4-((5-(3-(methoxymethyl)phenyl)oxazol-4-yl)methyl)-1,4,9-triazaspiro[5.5] undecan-5-one], the Kd in assay [1] stood at 1.32 µM; in assay [2], 0.1 µM. The Ki came to 1.43 µM in assay [3] and 0.075 µM in assay [4].

Regarding `COc1cc(C)nc(N2CCC3(CCCN(Cc4ccccc4-c4nc(C)no4)C3=O)C2)n1` (stereo not shown) [Example 7.14, 2-(4-methoxy-6-methylpyrimidin-2-yl)-7-(2-(3-methyl-1,2,4-oxadiazol-5-yl)benzyl)-2,7-diazaspiro[4.5]decan-6-one], the Kd in assay [1] was found to be 0.171 µM; in assay [2], 0.21 µM. In addition, the figures for the Ki in assay [3] and in assay [4] were 0.174 µM and 0.092 µM, respectively.

Regarding `COc1cc(C)nc(N2CCC3(CCN(Cc4nn(C)nc4-c4cccc(C)c4)C3=O)C2)n1` (stereo not shown) [Example 5.44, 7-(4-methoxy-6-methylpyrimidin-2-yl)-2-((2-methyl-5-(m-tolyl)-2H-1,2,3-triazol-4-yl)methyl)-2,7-diazaspiro[4.4]nonan-1-one], the figures for the Kd in assay [1] and in assay [2] were 0.106 µM and 0.02 µM, respectively. Besides, the Ki came to 0.068 µM in assay [3] and 0.0034 µM in assay [4].

Consider `N#Cc1ccnc(N2CCC3(CCC(=O)N3Cc3cccc4[nH]ccc34)CC2)c1` [Example 8.4, 2-(1-((1H-Indol-4-yl)methyl)-2-oxo-1,8-diazaspiro[4.5]decan-8-yl)isonicotinonitrile], for which the figures for the Kd in assay [1] and in assay [2] were greater than 10 µM and 0.348 µM, respectively. In addition, in assay [3] (measured at a concentration of 10 μM of compound, read-out: FLIPR hOx1R % inhibition), the inhibition at 10 µM was determined as 36%. In addition, in assay [4], the Ki was 0.045 µM.

For the molecule `COc1cccc(-c2n[nH]nc2CN2CCOC3(CCN(c4nc(C)cc(C)n4)CC3)C2=O)c1` [Example 2.17, 9-(4,6-Dimethylpyrimidin-2-yl)-4-((5-(3-methoxyphenyl)-2H-1,2,3-triazol-4-yl)methyl)-1-oxa-4,9-diazaspiro[5.5]undecan-5-one], the Kd in assay [1] came to 0.363 µM; in assay [2], 0.016 µM. For the same molecule, the Ki was 0.22 µM in assay [3] and 0.001 µM in assay [4].

Consider `CN(C)c1cc(C(F)(F)F)nc(N2CCC3(CCN(Cc4c[nH]c5ccccc45)C3=O)C2)n1` (stereo not shown) [Example 5.47, 2-((1H-indol-3-yl)methyl)-7-(4-(dimethylamino)-6-(trifluoromethyl)pyrimidin-2-yl)-2,7-diazaspiro[4.4]nonan-1-one], for which the Kd came to 1.03 µM in assay [1] and 0.518 µM in assay [2]. Further, the Ki worked out at 0.193 µM in assay [3] and 0.097 µM in assay [4].
